Measurements published in the NIST ThermoML archive (doi:10.1016/j.jct.2013.06.008).
± gives the expanded uncertainty stated by the source.

Settings: 100 kPa, Liquid; for electrical conductivity: Alternating current cell with electrodes

CCCCCC[n+]1cccc(C)c1.O=S(=O)([N-]S(=O)(=O)C(F)(F)F)C(F)(F)F
Settings | electrical conductivity [S/m]
278.15 K | 0.0495 ± 0.001
283.15 K | 0.067 ± 0.0013
288.15 K | 0.0885 ± 0.0018
293.15 K | 0.116 ± 0.0023
298.15 K | 0.148 ± 0.003
303.15 K | 0.187 ± 0.0037
308.15 K | 0.231 ± 0.005
313.15 K | 0.283 ± 0.006
318.15 K | 0.342 ± 0.007
323.15 K | 0.406 ± 0.008
328.15 K | 0.477 ± 0.01
333.15 K | 0.553 ± 0.011
338.15 K | 0.638 ± 0.013
343.15 K | 0.728 ± 0.015
348.15 K | 0.822 ± 0.016
353.15 K | 0.92 ± 0.018

Settings | mass density, Buoyancy - hydrostatic balance [kg/m3] | viscosity, Capillary tube (Ostwald / Ubbelohde) method [mPa·s]
283.15 K | 1373.6 ± 2 | –
288.15 K | 1369.7 ± 2 | –
293.15 K | 1365.3 ± 2 | –
298.15 K | 1361.5 ± 2 | 86.59 ± 2.1
303.15 K | 1357 ± 2 | 67.83 ± 1.6
308.15 K | 1352.9 ± 2 | 54.23 ± 1.2
313.15 K | 1348.7 ± 2 | 44.24 ± 0.99
318.15 K | 1344.7 ± 2 | 36.21 ± 0.81
323.15 K | 1340.3 ± 2 | 29.97 ± 0.67
328.15 K | 1336 ± 2 | 25.08 ± 0.55
333.15 K | 1331.7 ± 2 | 21.31 ± 0.47
338.15 K | 1328 ± 2 | 18.28 ± 0.4
343.15 K | – | 15.88 ± 0.35
348.15 K | – | 13.71 ± 0.3
353.15 K | – | 11.99 ± 0.26

CCCCCC[n+]1ccc(C)cc1.O=S(=O)([N-]S(=O)(=O)C(F)(F)F)C(F)(F)F
Settings | electrical conductivity [S/m]
283.15 K | 0.0839 ± 0.0017
288.15 K | 0.11 ± 0.0022
293.15 K | 0.145 ± 0.0029
298.15 K | 0.185 ± 0.0037
303.15 K | 0.231 ± 0.005
308.15 K | 0.283 ± 0.006
313.15 K | 0.346 ± 0.007
318.15 K | 0.415 ± 0.008
323.15 K | 0.487 ± 0.01
328.15 K | 0.571 ± 0.011
333.15 K | 0.652 ± 0.013
338.15 K | 0.756 ± 0.015
343.15 K | 0.861 ± 0.017
348.15 K | 0.968 ± 0.019
353.15 K | 1.07 ± 0.022

Settings | mass density, Vibrating tube method [kg/m3] | viscosity, Concentric cylinders viscometry [mPa·s]
283.15 K | 1365.3 ± 2.1 | 181.62 ± 5.1
288.15 K | 1360.8 ± 2.1 | 133.92 ± 3.6
293.15 K | 1356.3 ± 2.1 | 101.07 ± 2.5
298.15 K | 1351.8 ± 2.1 | 77.99 ± 1.8
303.15 K | 1347.4 ± 2.1 | 61.3 ± 1.4
308.15 K | 1342.9 ± 2.1 | 49.03 ± 1.1
313.15 K | 1338.5 ± 2.1 | 39.75 ± 0.89
318.15 K | 1334.1 ± 2.1 | 32.73 ± 0.72
323.15 K | 1329.6 ± 2.1 | 27.38 ± 0.6
328.15 K | 1325.2 ± 2.1 | 23.11 ± 0.51
333.15 K | 1320.8 ± 2.1 | 19.71 ± 0.43
338.15 K | 1316.5 ± 2.1 | 16.97 ± 0.37
343.15 K | 1312.1 ± 2.1 | 14.73 ± 0.32
348.15 K | 1307.8 ± 2.1 | 12.87 ± 0.28
353.15 K | 1303.4 ± 2 | 11.32 ± 0.24

CCC[n+]1cccc(C)c1.O=S(=O)([N-]S(=O)(=O)C(F)(F)F)C(F)(F)F
Settings | electrical conductivity [S/m]
278.15 K | 0.152 ± 0.003
283.15 K | 0.199 ± 0.004
288.15 K | 0.253 ± 0.005
293.15 K | 0.318 ± 0.006
298.15 K | 0.393 ± 0.008
303.15 K | 0.476 ± 0.01
308.15 K | 0.571 ± 0.011
313.15 K | 0.671 ± 0.013
318.15 K | 0.786 ± 0.016
323.15 K | 0.904 ± 0.018
328.15 K | 1.04 ± 0.021
333.15 K | 1.18 ± 0.024
338.15 K | 1.33 ± 0.027
343.15 K | 1.49 ± 0.03
348.15 K | 1.65 ± 0.033
353.15 K | 1.83 ± 0.037

Settings | mass density, Buoyancy - hydrostatic balance [kg/m3] | viscosity, Capillary tube (Ostwald / Ubbelohde) method [mPa·s]
288.15 K | 1459.6 ± 2 | –
293.15 K | 1455.6 ± 2 | –
298.15 K | 1451.4 ± 2 | 54.12 ± 1.2
303.15 K | 1447.1 ± 2 | 43.46 ± 0.99
308.15 K | 1442.6 ± 2 | 35.27 ± 0.79
313.15 K | 1438 ± 2 | 29.18 ± 0.65
318.15 K | 1433.2 ± 2 | 24.32 ± 0.54
323.15 K | 1428.7 ± 2 | 20.87 ± 0.46
328.15 K | 1424.5 ± 2 | 17.94 ± 0.39
333.15 K | 1420.3 ± 2 | 15.15 ± 0.33
338.15 K | 1416 ± 2 | 13.4 ± 0.29
343.15 K | – | 11.74 ± 0.25
348.15 K | – | 10.37 ± 0.22
353.15 K | – | 9.19 ± 0.2
